# Source: patent US20200390718A1, “METHODS AND COMPOSITIONS FOR […]-VIRAL TRANSFER VECTOR IMMUNE RESPONSE” (Selecta Biosciences, Inc., priority 2019, published 2020)
# System: AAV8-SEAP
# Assay: Serum SEAP expression after AAV8-SEAP injections
# Assay type: in vivo, C57BL/6 female mice
# Conditions: after the second boost at d140 (FIG. 2A) or d147 (FIG. 2B); AAV8-SEAP 1×10^10 VG
# Experimental: Three groups of C57BL/6 female mice (6 mice each) were injected (r.o.) on days 0 and 56 with 1×10^10 VG of AAV8-SEAP without any nanoparticles (one group) or with ImmTOR™ at 100 μg of rapamycin (synthetic nanocarriers comprising rapamycin, such as those produced in Example 1; two groups). Of the […] two groups, one group was left untreated and one was additionally treated with systemic dexamethasone (i.p., 200 μg in 100 μL per injection) on injection days 0 and 56.
# At time indicated in FIGS. 1A and 1B (days 14, 35, 49, 63 and 71 or days 13, 19, 33, 48, 62 and 69), mice were bled, serum separated from whole blood, and stored at −20±5° C. until analysis. SEAP levels in serum were measured using an assay kit from ThermoFisher Scientific (Waltham, Mass., USA). Briefly, sera samples and positive controls were diluted in dilution buffer, incubated at 65° C. for 30 min, then cooled to room temperature, and plated into a 96-well format. Then, assay buffer (5 min) and substrate (20 min) were added and the plates were read on a luminometer (477 nm).
# This has warranted a series of further studies in which four groups of C57BL/6 female mice (6 mice each) were injected (r.o.) on days 0, 56 and 140 or 147 with 1×10^10 VG of AAV8-SEAP without any nanoparticles (two groups) or with ImmTOR™ at 100 μg of rapamycin (synthetic nanocarriers comprising rapamycin; two groups). […]
smiles,measurement,value
"C[C@@H]1C[C@H]2[C@@H]3CCC4=CC(=O)C=C[C@]4(C)[C@@]3(F)[C@@H](O)C[C@]2(C)[C@@]1(O)C(=O)CO [dexamethasone, 9α-fluoro-11β,17α,21-trihydroxy-16α-methylpregna-1,4-diene-3,20-dione]",benefit in SEAP expression vs. untreated,10-80%
